In one data set the test system is oilseed rape. As to the kind of experiment: Safening oilseed rape using a variety of safening compounds of classes (a) to (f) with herbicides. Format: in vivo. As to conditions: herbicide Bifenox (with insecticide cypermethrin). An excerpt:
Safening compounds were selected from the list of compounds below. The compounds used are highlighted in bold. • (a) Glucose (GL), hydrolysed starch, sucrose (S), fructose (FR), glycerol (G), glyceraldehydes, erythrose, ribulose, xylulose or arabinose or an ester or glycoside or metabolic equivalent of such a carbohydrate; • (b) an organic acid of the Krebs Tricarboxylic Acid Cycle or a metabolic precursor thereof (including citric (C), succinic (SU), malic, pyruvic, acetic and fumaric acids); • (c) a vitamin or coenzyme, eg thiamine (T), riboflavin (R), pyridoxine (P), pyridoxamine, pyridoxal, nicotinamide (N), folic acid (F), ascorbic acid (AA), Biotin (B) and vitamin B12 (B12) or a precursor thereof including nicotinic acid • (d) a purine or pyrimidine nucleoside, nucleotide or a metabolic precursor thereof, eg adenine, adenosine, thymine, thymidine, cytosine, guanine, guanosine, hypoxanthine, uracil, uridine or inosine, to act as structural precursors for nucleic acid synthesis. • (e) a naturally occurring fat or oil including olive, soya, coconut and corn (Oil) oils; • (f) an amino acid of a type that occurs naturally in plant proteins, eg glycine (GLY), alanine (AL), valine, leucine (LE), isoleucine, serine, threonine (THR), cysteine (CY), methionine (ME), aspartic acid, glutamic acid, glutamine (GLU), asparagine (AS), lysine (LY), hydroxylysine, arginine, histidine, phenylalanine, tyrosine, tryptophan, proline, or hydroxyproline. Statistical Layout: Randomised Complete Block trial, under glasshouse conditions, United Kingdom.

The next data set concerns Winter wheat cv Alchemy. As to the kind of experiment: Safening of herbicides from addition of auxin/auxin precursor and acetaminophen, winter wheat. As to conditions: auxins/precursors 10^-2 Molar, AC 3 g per hectare, 0-9 scale, 0=dead plant.
Data set [1] has as its system NAVY BEAN cv Mogex. As to the kind of experiment: Root nodulation and safening, navy bean, compost of normal pH (Example 7.4). The following applies: compost of normal pH (6.5). An excerpt:
(§1) The safener/safening system and the fertiliser were applied to the crops either simultaneously or sequentially.
(§2) Co=100% Cobalt Sulphate (20 g per litre and per hectare). FF1=20 g per litre Cobalt Sulphate (as per Co above) plus “Miracle-Gro” at xl recommended rate (applied at 15 g per 2.5 sq metres). Miracle-Gro contains: 24% N, 4% P, 13% K, plus 0.02% B, 0.03% Cu, 0.19% Fe, 0.05% Mn, 0.001% Mo and 0.03% Zn. FF2=20 g per litre Cobalt Sulphate plus Miracle-Gro at ×2 recommended rate. SAF: at least one from class (f) each at <3 g/l, plus at least one from class (c).
NAVY BEAN cv Mogex. Scored/Counted+28 Days after Spraying. Dates as per Example 7.3 Above, but sown in compost of normal pH (6.5). Each treatment represents the mean value from 12 plants, within four replicates. No inoculum applied.

The test system of a further data set is Glycine max (Soybean). As to the kind of experiment: Root nodulation and safening, soybean, compost of normal pH (Example 7.2). The following applies: compost of normal pH (6.5).
Text: as §1, §2
Dates as per Example 7.1 above, but sown in compost of normal pH (6.5). Each treatment represents the mean values for 12 plants, within four replicates. Sowing density 110 kg/ha. Standard inoculant applied at sowing.

Data set [2] concerns PEA cv Ragtime. As to the kind of experiment: Root nodulation and safening, pea, compost of normal pH (Example 7.6). The following applies: compost of normal pH (6.5).
Text: as §1, §2
PEA—TRIAL 7.6—cv Ragtime. Dates as per Example 7.5 above, but sown in compost of normal pH (6.5). […] No inoculum was applied.

Another data set relates to Soybean. As to the kind of experiment: Root nodulation and safening, soybean, compost of low pH (Example 7.1).
Text: as §1, §2
Scored/Counted+28 Days After Spraying. Sown in Compost of low pH (5.0-5.5) on 1 May 2008. Spray Date (VC)=4 June, V1 Date=20 June. Scored/Measured on 17 July. […] Seed density approx 110 kg/ha. Soybean treated with standard inoculant at sowing.

Data set [3] deals with PEA cv Ragtime. Put plainly: Root nodulation, rooting and safening, pea, compost of low pH (Examples 7.5 and 7.7).
Text: as §1, §2
PEA—TRIAL 5—cv Ragtime. Scored/Counted+28 Days after Spraying. Sown in Compost of Low pH (5.0-5.5) on 28 Apr. 2008. Spray Date (VC)=26 May, V1 Date=14 June. Scored/Measured on 9 July. […] No inoculum applied.
Sowing details etc as per Example 7.5.

The subject of data set [4] is NAVY BEAN cv Mogex. As to the kind of experiment: Root nodulation and safening, navy bean, compost of low pH (Example 7.3). The following applies: compost of low pH (5.0-5.5).
Text: as §1, §2
NAVY BEAN cv Mogex. Scored/Counted+28 Days after Spraying. Sown in Compost of low pH (5.0-5.5) on 29 Apr. 2008. Spray Date (VC)=27 May, V1 Date=16 June. Scored/Measured on 11 July. Each treatment represents the mean value of 12 plants, within four replicates. No inoculum applied.

Where [5] appears, read: V1, +28 days after spraying, no inoculum.
The mark [6] stands for this setting: Soybean, compost of low pH (5.0-5.5), V1, score 0-9.
[7] abbreviates: compost of low pH (5.0-5.5), V1, score 0-9.
The mark [8] stands for this setting: low pH compost, application at V1, 0-9 scale.

For the compound `Nc1ccccc1C(=O)O` [2. AN (Anthranilic Acid)], in the data set on oilseed rape (score 0-9, 0 = Dead, 14 days), the “Phytotoxicity (0-9) (0 = Dead) + 14 Days” value worked out at 8.0 and the “Vigour (0-9) (0 = Dead) + 14 days” value came to 8.0. Besides, in the data set on oilseed rape (score 0-9, 0 = Dead, 28 days), the “Phytotoxicity (0-9) (0 = Dead) + 28 Days” value is 8.0 and the “Vigour (0-9) (0 = Dead) + 28 Days” value is 8.0. The “Rooting (0-9) (9 = Best Rooting) + 28 Days” value in the data set with oilseed rape (score 0-9, 9 = Best Rooting, 28 days) was found to be 8.0.
With `Nc1ccccc1C(=O)O` [Anthranilic acid (AN)], in the data set with Winter wheat cv Alchemy (14 days after spraying), the “Phytotoxicity (0-9) (0 = Dead) + 14 Days” value is 8.0. Besides, the “Phytotoxicity (0-9) (0 = Dead) + 28 Days” value with Winter wheat cv Alchemy (28 days after spraying) worked out at 8.0.
`O=S(=O)([O-])[O-].[Co+2]` [cobalt, Cobalt Sulphate]: the “Nodules Per Plant (V1)” value in the data set with NAVY BEAN cv Mogex [1] (setting [5]) is 33.5; with Glycine max (Soybean) (V1, mean of 12 plants) it was 29.8; in the data set on PEA cv Ragtime [2] (V1, no inoculum), 16.9; in the data set on Soybean (Soybean, compost of low pH (5.0-5.5), V1, +28 days after spraying, mean of 12 plants), 27.3; in the data set on PEA cv Ragtime [3] (compost of low pH (5.0-5.5), V1, +28 days after spraying, no inoculum) it was 16.4; in the data set on PEA cv Ragtime [3] (low pH compost, application at V1 (data from Example 7.5)), 16.4. Besides, in the data set on NAVY BEAN cv Mogex [4] (setting [5]), the “Nodules Per Plant (V1)” value came out at 21.0. Moreover, the “Nodulation Score (0-9) (V1)” value in the data set with NAVY BEAN cv Mogex [1] (V1, score 0-9) turned out to be 5.2; in the data set with Glycine max (Soybean) (V1, score 0-9), 5.5; in the data set with PEA cv Ragtime [2] (V1, score 0-9), 5.1; in the data set on Soybean (setting [6]), 5.2; with PEA cv Ragtime [3] (setting [7]), 5.0; in the data set on PEA cv Ragtime [3] (setting [8]) it was 5.0. The “Nodulation Score (0-9) (V1)” value in the data set on NAVY BEAN cv Mogex [4] (V1, score 0-9) turned out to be 3.3. In addition, the “Phyto-Toxicity Score (0-9) (V1)” value in the data set with NAVY BEAN cv Mogex [1] (V1, score 0-9) stood at 7.3; in the data set on Glycine max (Soybean) (V1, score 0-9) it was 8.0; in the data set with PEA cv Ragtime [2] (V1, score 0-9), 6.9; in the data set with Soybean (setting [6]) it was 7.8; with PEA cv Ragtime [3] (setting [7]) it was 5.1; in the data set with PEA cv Ragtime [3] (setting [8]), 5.1. The “Phyto-Toxicity Score (0-9) (V1)” value in the data set with NAVY BEAN cv Mogex [4] (V1, score 0-9) was 5.7. Also, the “Vigour Score (0-9) (V1)” value came to 7.2 in the data set with NAVY BEAN cv Mogex [1] (V1, score 0-9); 6.5 in the data set on Glycine max (Soybean) (V1, score 0-9); 6.8 in the data set on PEA cv Ragtime [2] (V1, score 0-9); 6.0 with Soybean (setting [6]); 5.8 with PEA cv Ragtime [3] (setting [7]); 5.9 in the data set with NAVY BEAN cv Mogex [4] (V1, score 0-9). Besides, the “Nodules Per Plant (VC)” value with NAVY BEAN cv Mogex [1] (VC) was determined as 31.8; in the data set on Glycine max (Soybean) (VC), 28.0; in the data set on PEA cv Ragtime [2] (VC), 17.4; with Soybean (Soybean, compost of low pH (5.0-5.5), VC, +28 days after spraying) it was 28.8; in the data set on PEA cv Ragtime [3] (compost of low pH (5.0-5.5), VC), 18.1; in the data set on NAVY BEAN cv Mogex [4] (VC) it was 23.8. Further, the “Nod Score (0-9) (VC)” value in the data set on NAVY BEAN cv Mogex [1] (VC, score 0-9) came to 5.0; in the data set with Glycine max (Soybean) (VC, score 0-9), 5.3; with PEA cv Ragtime [2] (VC, score 0-9), 5.2; in the data set with Soybean (Soybean, compost of low pH (5.0-5.5), VC, score 0-9), 5.4; in the data set with PEA cv Ragtime [3] (compost of low pH (5.0-5.5), VC, score 0-9) it was 5.3; in the data set on NAVY BEAN cv Mogex [4] (VC, score 0-9), 3.8. Moreover, the nodulation result in the data set on Soybean (nitrogen fixing crops) is given as “increases nodulation”. In addition, the “Rooting Score (0-9) (V1)” value in the data set on PEA cv Ragtime [3] (setting [8]) is 4.2.
